The values that follow come from patent US6974794B1, “Hemoglobin-antioxidant conjugates” (Hemosol LP, priority 1999, dated 2005).

One data set has as its system erythrocytes. As to the kind of experiment: Hemolysis of erythrocytes mediated by peroxyl radicals (AAPH); protection of RBCs against lysis. The format is cell-based. As to conditions: for AUC, % of control: relative to the corresponding control without Trolox, CO-ligated. As to the method:
Blood was collected into heparinized tubes and erythrocytes were separated by centrifugation and washed 3 times with 10 volumes of PBS, pH 7.4. During the last washing, erythrocytes were centrifuged at 1000×g for 10 minutes to obtain a consistently packed cell preparation. The assay for hemolysis mediated by peroxyl radicals was conducted by a modified method of Miki et al.,(M. Miki, H. Tamai, M. Mino, Y. Yamamoto and E. Niki., Arch. Biochem. Biophys. 258:373-380 (1987)). Equal volumes of a 30% suspension of fresh erythrocytes in PBS pH 7.4, test sample, and 300 mM 2,2;-azo-bis(2-amidinopropane dihydrochloride) (AAPH, a radical generator) were combined in order. Mixtures were prepared under CO gas and test hemoglobin concentration in the RBC assay suspension was 12-13 mg/ml. Mixtures were held at 37° C., and aliquots were diluted 20-fold in PBS and centrifuged at 1000×g for 10 minutes. As a measure of Hb released due to RBC lysis, the absorbances of supernatants were measured at 540 nm after conversion of all Hb to CN-metHb according to the method of Tentori (Meth. Enzymology 75:707 (1981)). Supernatant Hb levels were corrected for Hb added in the test samples.
The results for two products are presented graphically in FIG. 1, a plot of relative RBC lysis against time for the various products. Products analyzed were prepared as described for reaction #6 (Hb-Trolox B) and reaction #7 (Hb-Trolox A) in Table 1 of Example 1. […] Relative protection was also determined by comparison of areas under the curves (AUC) obtained by plotting RBC lysate absorbance versus time. AUC is determined by the time of onset, rate, and overall extend of RBC lysis. Lower AUC values indicate greater protection of RBCs against lysis.
Using the method described in Example 2, the anti-oxidant activities of the two conjugates were measured. Samples were CO-ligated and concentration of the conjugates and controls in the RBC assay suspension was 12 mg/mL.
Using the method described in Example 1, the anti-oxidant activity of the polyOR-Hb-TX was measured. Products tested included oxygen and CO-ligated polyOR-Hb (no treatment with TX or EDC), CO-ligated product reserved prior to oxygenation as described above, and oxygenated product. All products were present in the RBC lysis assay suspension at 11.7 mg/mL.
Using the method described in Example 1, the antioxidant activities of the polyOR-Hb-TX products prepared under deoxy conditions (Example 8) and CO conditions (Example 6) were measured. Samples were CO-ligated and concentration of the conjugates and controls in the RBC assay suspension was 12 mg/mL. An equal concentration of polyOR-Hb, as well as two concentrations of Trolox alone representing 1× and 0.5× its solubility limit in the test solution, were evaluated.

In another data set the test system is conscious rat. The experiment in a line: Hemodynamic effect following 10% topload infusion in conscious rat. The format is in vivo. As to conditions: for Pre-infusion HR / baseline MAP prior to infusion: conscious Sprague-Dawley rat, before infusion; for baseline MAP prior to infusion: four animals per group; for HR after infusion / MAP following infusion: 10% topload infusion of 7.7 g/dL solution in lactated Ringer's. Here is the method: Male Sprague-Dawley rats (250-350 g) were anesthetized with isoflurane on the day of the experiment. The right femoral artery and vein were cannulated. After 1.5 hour recovery from surgery, conscious animals residing in a metabolic cages were infused with either of two solutions: oxygenated polyOR-TX prepared in Example 6 or polyOR-Hb (no TX-EDC treatment; both solutions were 7.7 g/dL in lactated Ringer's solution). Infusion volume was equal to 10% of the animal's estimated blood volume. Mean arterial blood pressure (MAP) and heart rate (HR) were recorded 30 minutes prior to infusion to establish baseline values, during infusion and for 2 hours following infusion (FIGS. 3 and 4). Four animals were tested in each of the two groups. The baseline MAP prior to infusion was 101±4 mm Hg (polyOR-Hb) and 110±3 mm Hg (polyOR-Hb-TX). […] Pre-infusion HR were 407±17 and 394±17 beats per minute (bpm) in the polyOR-Hb and polyOR-Hb-TX groups, respectively.

Data set [1] can be described thus: P50 measured with a Hemox-Analyzer. The conditions noted are these: 37° C. Here is the method:
Trolox was conjugated to polyOR-Hb under deoxy conditions to prepare a product with a high P50, more suitable for use as an HBOC. PolyOR-Hb and MES buffer were deoxygenated by standard means. 0.78 g Trolox was reacted with 0.60 g EDC in 4 mL of acetonitrile for 10-20 minutes at room temperature. This solution was added to 2.04 g polyOR-Hb in 200 mL 120 mM MES pH 7.0. Two identical additions were made after 4 and 21 hours. At 27 hours following the first addition, the reaction mixture was charged with CO gas, filtered, concentrated and dialyzed extensively against PBS.

Where [2] appears, read: Table 8, 11.7 mg/mL in RBC lysis assay suspension.
Setting [3] is: Table 7, CO-ligated samples, 12 mg/mL in RBC assay suspension.
Setting [4] is: Table 4, hemoglobin 0.20 mM (12-13 mg/ml) in RBC assay suspension, under CO, 37° C., bound Trolox 0.32 mM (A), 0.45 mM (B), lower AUC = greater protection.

Take “PolyOR-Hb-TX (CO form): CO-ligated product of Example 6 reserved prior to oxygenation”: the “AUC relative to AAPH control (%)” value in the data set on erythrocytes (setting [2]) came to 6%.
On to “PolyOR-Hb: o-raffinose cross-linked / polymerized hemoglobin, no treatment with TX or EDC [reference compound]”, for which the “AUC relative to AAPH control (%)” value with erythrocytes (Table 9, CO form, 12 mg/mL) came to 28%. In addition, in the data set on conscious rat, the “Pre-infusion HR” value turned out to be 407±17 bpm and the “baseline MAP prior to infusion” value was determined as 101±4 mm Hg. In the data set on conscious rat (conscious rat), the HR after infusion turned out to be 345±16 bpm and the MAP following infusion was 142±7 mm Hg. In data set [1], this molecule yielded a P50 of 41 mm Hg.
Take “PolyOR-Hb-TX (from Example 8): Trolox conjugated to polyOR-Hb under deoxy conditions”: in the data set on erythrocytes (Table 9, CO form, 12 mg/mL), the “AUC relative to AAPH control (%)” value came to 3%. This molecule showed a P50 in data set [1] of 40 mm Hg.
Consider “3× TX-EDC (Reaction B): polyOR-Hb conjugated with Trolox by three additions of Trolox/EDC”, for which the “AUC, % of control” value with erythrocytes (12 mg/mL) was 3%.
With “PolyOR-Hb (CO form): CO-ligated polyOR-Hb, no treatment with TX or EDC”, in the data set on erythrocytes (setting [2]), the “AUC relative to AAPH control (%)” value came to 47%.
“3× Control: control product: polyOR-Hb reacted with EDC alone, no Trolox added, three additions”: the “AUC relative to AAPH control (%)” value with erythrocytes (setting [3]) is 69%.
As to “PolyOR-Hb-TX (from Example 6): Trolox conjugate of o-raffinose polymerized hemoglobin, large scale, prepared under CO conditions”, the “AUC relative to AAPH control (%)” value in the data set with erythrocytes (Table 9, CO form, 12 mg/mL) is reported as 0%. In the data set on conscious rat, the “Pre-infusion HR” value was 394±17 bpm and the “baseline MAP prior to infusion” value was found to be 110±3 mm Hg. In the data set on conscious rat (conscious rat), this molecule registered an HR after infusion of 316±10 bpm and an MAP following infusion of 151±1 mm Hg. Moreover, in the data set with conscious rat (conscious rat, 10% topload infusion, result in words), the “Hemodynamic properties compared with polyOR-Hb” value was “did not alter the hemodynamic properties”. The molecule further returned a P50 in data set [1] of 16 mm Hg.
In the case of “PolyOR-Hb (Oxy form): oxygen-ligated polyOR-Hb, no treatment with TX or EDC”, the “AUC relative to AAPH control (%)” value in the data set on erythrocytes (setting [2]) stood at 39%.
Regarding “1× Control: control product: polyOR-Hb reacted with EDC alone, no Trolox added, single addition”, the “AUC relative to AAPH control (%)” value in the data set on erythrocytes (setting [3]) is reported as 83%.
As to “Free Hb (B): free (control) hemoglobin; product of the control reaction corresponding to Hb-Trolox B, no TX-EDC added”, in the data set on erythrocytes (setting [4]), the “AUC relative to AAPH control (%)” value came out at 35%.
As to `Cc1c(C)c2c(c(C)c1O)CCC(C)(C(=O)O)O2` (centres unmarked) [Free Trolox, 2,5,7,8-tetramethyl-2-carboxy-chroman-6-ol], the “AUC relative to AAPH control (%)” value in the data set with erythrocytes (Table 4, Trolox 0.50 mM, no hemoglobin) stood at 88%; with erythrocytes (Table 9, Trolox alone 0.26 mM (0.5× its solubility limit)), 87%; in the data set with erythrocytes (Table 9, Trolox alone 0.52 mM (1× its solubility limit)), 70%.
Consider “PolyOR-Hb-TX (Oxy form): oxygenated product of Example 6”, for which, in the data set with erythrocytes (setting [2]), the “AUC relative to AAPH control (%)” value is recorded as 15%.
In the case of “1× TX-EDC (Reaction A): polyOR-Hb conjugated with Trolox by a single addition of Trolox/EDC”, the “AUC relative to AAPH control (%)” value with erythrocytes (setting [3]) is 27%. The “AUC, % of control” value with erythrocytes (12 mg/mL) worked out at 33%.
As for “Free Hb (A): free (control) hemoglobin; product of the control reaction corresponding to Hb-Trolox A, no TX-EDC added”, the “AUC relative to AAPH control (%)” value with erythrocytes (setting [4]) is on record as 39%.
